According to patent EP4800018A1, “PAN-KRAS INHIBITOR AND USE THEREOF IN MEDICINES” (Betta Pharmaceuticals Co., Ltd., priority 2023, dated 2025):
Like-named read-outs stand apart in the source and are kept apart here.

Assays:
Type in all cases: cell-based
[1] = target: T1, KRAS G12D-cRAF (Homo sapiens, UniProt P01116, G12D); experiment: Cellular KRAS G12D-cRAF Binding Inhibition Assay (NanoBRET, AD293 stable cells)
T1 construct: expressed in transfected cells
Method: (§1) NanoLuc® luciferase was used as the energy donor, and NanoBRET™ 618 fluorescent ligand labeled with the HaloTag® protein was used as the energy acceptor to detect protein-protein interactions in living cells. AD293 stable cells transfected with KRAS G12D-NanoLuc® luciferase and cRAF RBD-HaloTag® tag protein were seeded in 96-well plates at a cell density of 1×10^4 cells/well. Except for wells with medium added as a blank control, NanoBRET™ 618 fluorescent ligand was added to all other wells, and the plates were cultured overnight in a cell culture incubator. […] The luminescence data were calculated and converted into inhibition percent. The inhibition percent of KRAS G12D-cRAF binding was calculated according to the following formula: Inhibition Percent = (MaxValue−MeasuredValue)/(MaxValue−Blank) × 100% [formula] […] Curve fitting was performed using GraphPad Prism software to obtain IC50 values, see Table 1.

[2] = system: KRAS-G12V mutant tumor cells SW620; experiment: Cell Proliferation Inhibition Assay (SW620), Cell-titer GLO, 96 h; conditions: read-out: SW620(G12V)
Method: (§2) KRAS-G12V mutant tumor cells SW620 were seeded in low-attachment 96-well plates at a cell density of 1×10^3 cells/well and cultured overnight in a cell culture incubator. After the cells adhered, the test compounds were added to the 96-well plates at final concentrations of 10000, 2000, 400, 80, 16, 3.2, 0.64, 0.13, 0.03, 0 nM (final concentration of DMSO was 0.5% for all). After incubation at 37°C for 96 h, 50 µL of Cell-titer GLO working solution was added to each well, mixed by shaking, incubated at room temperature for 10 min, and the Luminescence value was read on a multi-function microplate reader. The luminescence data were calculated and converted into inhibition percent. The inhibition percent of cell proliferation was calculated according to the following formula: Inhibition Percent = (MaxValue−MeasuredValue)/(MaxValue−Blank) × 100% [formula]
("Max Value" comes from the 0.5% DMSO control well, "Blank" comes from the blank control well, and "Measured Value" comes from the compound-treated well).
Curve fitting was performed using GraphPad Prism software to obtain IC50 values, see Table 1.

[3] = system: KRAS-G12D mutant tumor cells AGS; experiment: Cell Proliferation Inhibition Assay (AGS), Cell-titer GLO, 96 h; conditions: read-out: AGS(G12D)
Method: as §2, with “KRAS-G12D” for “KRAS-G12V”, “AGS” for “SW620”, “After the cells adhered, the test compounds were added to the 96-well plates at final concentrations of 10000, 2000, 400, 80, 16, 3.2, 0.64, 0.13, 0.03, 0 nM (final concentration of DMSO was 0.5% for all).” left out, “[formula] […] Curve fitting was performed using GraphPad Prism software to obtain IC50 values, see Table 1.” for “[formula]”

[4] = target: T2, KRAS G12V-cRAF (Homo sapiens, UniProt P01116, G12V); experiment: Cellular KRAS G12V-cRAF Binding Inhibition Assay (NanoBRET, AD293 stable cells)
T2 construct: expressed in transfected cells
Method: as §1, with “AD293 stable cells transfected with KRAS G12D-NanoLuc® luciferase and cRAF RBD-HaloTag® tag protein were seeded in 96-well plates at a cell density of 1×10^4 cells/well.” left out, “G12V-cRAF” for “G12D-cRAF”

[5] = 3 h incubation, read-out: NanoBRET KRAS G12D
[6] = Homo sapiens, SW-620, 96 h, SW620 cells, 96 h incubation, Cell-titer GLO
[7] = Homo sapiens, AGS, 96 h, AGS cells, 96 h incubation, Cell-titer GLO
[8] = 3 h incubation, read-out: NanoBRET KRAS G12V

T1 sequence (P01116 1-188 isoform P01116-2 G12D): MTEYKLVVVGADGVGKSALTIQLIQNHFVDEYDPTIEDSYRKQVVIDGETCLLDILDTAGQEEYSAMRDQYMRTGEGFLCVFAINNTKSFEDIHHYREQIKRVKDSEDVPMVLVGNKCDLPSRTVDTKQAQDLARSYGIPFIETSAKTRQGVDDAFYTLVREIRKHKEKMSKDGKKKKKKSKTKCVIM
T2 sequence (P01116 1-188 isoform P01116-2 G12V): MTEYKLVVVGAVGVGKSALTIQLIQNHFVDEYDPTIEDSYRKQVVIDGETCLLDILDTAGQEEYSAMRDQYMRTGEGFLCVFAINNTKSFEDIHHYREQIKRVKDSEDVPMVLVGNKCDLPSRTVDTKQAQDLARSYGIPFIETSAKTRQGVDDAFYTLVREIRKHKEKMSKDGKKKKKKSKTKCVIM

Row | IC50 [1, 5] | IC50 [2, 6] | IC50 [3, 7] | IC50 [4, 8] | SMILES | IC50 ([2]; Homo sapiens, SW-620, 96 h) | IC50 ([3]; Homo sapiens, AGS, 96 h) | also measured
1 | 5.56 nM | 0.63 nM | 3.72 nM | 19.9 nM | CC1OCCCn2c(c3c4cc(ccc42)-c2csc(n2)CC(NC(=O)C2CC2C(F)F)C(=O)N2CCCC(N2)C(=O)OCC(C)(C)C3)-c2cc(N3CCN(C4CC4)CC3)cnc21 [Example 85, (1S,2S)-N-((1^5S,6^3S,4S,Z)-1^2-(4-cyclopropylpiperazin-1-yl)-15,10,10-trimethyl-5,7-dioxo-1^8,1^9,6 ,6^2,6^3,6^4,6^5,6^6-octahydro-1^5H,1^7H-8-oxa-1(13,15)-pyrido[3',2':7,8][1,5]oxazonino[5,6-a]indola-2(4,2)-thiazola-6(1,3)-pyridazinacycloundecaphane-4-yl)-2-(difluoromethyl)cyclopropane-1-car boxamide] | – | – | –
2 | 2.57 nM | – | – | 11 nM | CC1CN(c2cnc3c(c2)-c2c4c5cc(ccc5n2CCCOC3C)-c2csc(n2)CC(NC(=O)C2CC2C(F)F)C(=O)N2CCCC(N2)C(=O)OCC(C)(C)C4)CC(C)O1 [Example 131, (1S,2S)-2-(difluoromethyl)-N-((1^5S,6^3S,4S,Z)-1^2-((2S,6S)-2,6-dimethylmorpholino)-1^5,10,10-trimethyl-5,7-dioxo-1^8,1^9,6^1,6^2,6^3,6^4,6^5,6^6-octahydro-1^5H,1^7H-8-oxa-1(13,15)-pyrido[3',2':7,8][1,5]oxazonino[5,6-a]indola-2(4,2)-thiazola-6(1,3)-pyridazinacycloundecaphane-4-yl)cyclopropane-1-carboxamide] | – | – | IC50 ([2]; SW620 cells, 96 h incubation, Cell-titer GLO): 0.51 nM; IC50 ([3]; AGS cells, 96 h incubation, Cell-titer GLO): 1.31 nM
3 | 6.55 nM | 0.34 nM | 2.68 nM | 22.7 nM | CC1OCCCn2c(c3c4cc(ccc42)-c2csc(n2)CC(NC(=O)C2CC2C(F)F)C(=O)N2CCCC(N2)C(=O)OCC(C)(C)C3)-c2cc(N3CC(N(C)C)C3)cnc21 [Example 94, (1S,2S)-2-(difluoromethyl)-N-((1^5S,6^3S,4S,Z)-1^2-(3-(dimethylamino)azetidin-1-yl)-1^5,10,10-trimethyl-5,7-dioxo-1^8,1^9,6^1,6^2,6^3,6^4,6^5,6^6-octahydro-1^5H,1^7H-8-oxa-1(13,15)-pyrido[3',2':7,8][1,5]oxazonino[5,6-a]indola-2(4,2)-thiazola-6(1,3)-pyridazinacycloundecaphane-4-yl)cyclopropane-1-carboxamide] | – | – | –
4 | 4.55 nM | 0.6 nM | 2.8 nM | 14.7 nM | CC1OCCCn2c(c3c4cc(ccc42)-c2csc(n2)CC(NC(=O)C2CC2C(F)F)C(=O)N2CCCC(N2)C(=O)OCC(C)(C)C3)-c2cc(N3CCC4(CC3)COC4)cnc21 [Example 125, (1S,2S)-2-(difluoromethyl)-N-((1^5S,6^3S,4SZ)-1^5,10,10-trimethyl-5,7-dioxo-1^2-(2-oxa-7-azaspiro [3.5]nonan-7-yl)-1^8,1^9,6^1,6^2,6^3,6^4,6^5,6^6-octahydro-1^5H,1^7H-8-oxa-1(13,15)-pyrido[3',2':7,8][1,5]oxazonino[5,6-a]indola-2(4,2)-thiazola-6(1,3)-pyridazinacycloundecaphane-4-yl)cyclopropane-1-carboxamide] | – | – | –

Continued, molecule first:

Row | SMILES | IC50 [1, 5] | IC50 [2, 6] | IC50 [3, 7] | IC50 [4, 8] | IC50 ([2]; Homo sapiens, SW-620, 96 h) | IC50 ([3]; Homo sapiens, AGS, 96 h) | also measured
5 | C[C@@H]1OCCCn2c(c3c4cc(ccc42)-c2csc(n2)C[C@H](NC(=O)[C@H]2C[C@@H]2C)C(=O)N2CCC[C@H](N2)C(=O)OCC(C)(C)C3)-c2cc(N3CCN(C)CC3)cnc21 [Example 1, (1S,2S)-2-methyl-N-((1^5S,6^3S,4S,Z)-1^5,10,10-trimethyl-1^2-(4-methylpiperazin-1-yl)-5,7-dioxo-1 ^8,1^9,6^1,6^2,6^3,6^4,6^5,6^6-octahydro-1^5H,1^7-oxa-1(13,15)-pyrido[3',2':7,8][1,5]oxazonino[5,6-a]indola-2(4,2)-thiazola-6(1,3)-pyridazinacycloundecaphane-4-yl)cyclopropane-1-carboxamide] | – | – | – | – | 0.54 nM | 7.86 nM | IC50 ([1]; NanoBRET KRAS G12D, 3 h incubation): 6.1 nM; IC50 ([4]; NanoBRET KRAS G12V, 3 h incubation): 29.9 nM
6 | CCN1CCN(c2cnc3c(c2)-c2c4c5cc(ccc5n2CCCOC3C)-c2csc(n2)CC(NC(=O)C23CC(C)(C2)C3)C(=O)N2CCCC(N2)C(=O)OCC(C)(C)C4)CC1 [Example 37, N-((1^5S,6^3S,4S,Z)-1^2-(4-ethylpiperazin-1-yl)-1^5,10,10-trimethyl-5,7-dioxo-1^8,1^9,6^1,6^2,6^3,6^4,6^56^6-octahydro-1^5H,1^7H-8-oxa-1(13,15)-pyrido[3',2':7,8][1,5]oxazonino[5,6-a]indola-2(4,2)-thiazola-6(1,3)-pyridazinacycloundecaphane-4-yl)-3-methylbicyclo[1.1.1]pentane-1-carboxamide] | 5.32 nM | 1.02 nM | 4.28 nM | 22.4 nM | – | – | –
7 | C[C@@H]1OCCCn2c(c3c4cc(ccc42)-c2csc(n2)C[C@H](NC(=O)[C@H]2C[C@@H]2C(F)F)C(=O)N2CCC[C@H](N2)C(=O)OCC(C)(C)C3)-c2cc(N3CC4(CCN(C)CC4)C3)cnc21 [Example 100, (1S,2S)-2-(difluoromethyl)-N-((1^5S,6^3S,4S,Z)-1^5,10,10-trimethyl-1^2-(7-methyl-2,7-diazaspiro[3. 5]nonan-2-yl)-5,7-dioxo-1^8,1^9,6^1,6^2,6^3,6^4,6^5,6^6-octahydro-1^5H,1^7H-8-oxa-1(13,15)-pyrido[3',2':7, 8][1,5]oxazonino[5,6-a]indola-2(4,2)-thiazola-6(1,3)-pyridazinacycloundecaphane-4-yl)cyclopro pane-1-carboxamide] | – | – | – | – | 0.1 nM | 0.44 nM | IC50 ([1]; read-out: NanoBRET KRAS G12D, 3 h incubation): 4.55 nM; IC50 ([4]; read-out: NanoBRET KRAS G12V, 3 h incubation): 21.7 nM
8 | CCN1CCN(c2cnc3c(c2)-c2c4c5cc(ccc5n2CCCOC3C)-c2csc(n2)CC(NC(=O)C(C(C)C)N(C)C(=O)N2CCOCC2)C(=O)N2CCCC(N2)C(=O)OCC(C)(C)C4)CC1 [Example 149, N-((2S)-1-(((1^5S,6^3S,4S,Z)-1^2-(4-ethylpiperazin-1-yl)-1^5,10,10-trimethyl-5,7-dioxo-1^8,1^9,6^1,6^2,6^3 ,6^4,6^5,6^6-octahydro-1^5H,1^7H-8-oxa-1(13,15)-pyrido[3',2':7,8][1,5]oxazonino[5,6-a]indola-2(4,2)-thiazola-6(1,3)-pyridazinacycloundecaphane-4-yl)amino)-3-methyl-1-oxobutan-2-yl)-N-methyl morpholine-4-carboxamide] | 3.48 nM | 1.09 nM | 3.19 nM | 10.9 nM | – | – | –
9 | CC1OCCCn2c(c3c4cc(ccc42)-c2csc(n2)CC(NC(=O)C2CC2C(F)F)C(=O)N2CCCC(N2)C(=O)OCC(C)(C)C3)-c2cc(N3CCN(C4CN(C)C4)CC3)cnc21 [Example 108, (1S,2S)-2-(difluoromethyl)-N-((1^5S,6^3S,4S,Z)-1^5,10,10-trimethyl-1^2-(4-(1-methylazetidin-3-yl)piperazin-1-yl)-5,7-dioxo-1^8, 1^9,6^1,6^2,6^3,6^4,6^5 ,6^6-octahydro-1^5H,1^7H-8-oxa-1(13,15)-pyrido[3',2':7,8][1,5]oxazonino[5,6-a]indola-2(4,2)-thiazola-6(1,3)-pyridazinacycloundecaphane-4-yl)cycloprop ane-1-carboxamide] | 6.1 nM | – | – | 37.9 nM | 0.28 nM | 0.58 nM | –
